Results reported in patent publication US9233984B2, “Compound, method for producing compound, and method for purifying compound” (Nippon Soda Co., Ltd., priority 2012, dated 2016).
Several values for one entry are separate records, joined by “and”; a condition that tells them apart may be missing. Identical values can stand only once.

Assay: Isomerization reaction rate under irradiation with light (365 nm, high-pressure mercury lamp) of 1% by weight aqueous solutions
Type: physicochemical
Settings: 1% by weight aqueous solution
Procedure: The reaction rates of the isomerization reaction were compared for the TZOX and TZOX-Na salt synthesized in Example 1. More specifically, 1% by weight aqueous solutions of each were prepared followed by irradiating these aqueous solutions with light (wavelength: 365 nm) for 3 hours using a high-pressure mercury lamp. A portion of the aqueous solutions were sampled prior to the start of irradiation with light (irradiation time: 0 hours) and at 1, 2 and 3 hours after the start of irradiation with light followed by an investigation of the abundance ratios of the (E) form and (Z) form. Although the abundance ratio of the (Z) form in the case of TZOX-Na prior to irradiation with light was only 0.33%, it increased to 34% after 1 hour had elapsed since the start of irradiation and remained essentially unchanged after that point. In other words, it was determined that the TZOX-Na salt reaches equilibrium as a result of being irradiated with light for 1 hour, and that the isomerization rate thereof is extremely fast. In contrast, in the case of TZOX, the abundance ratio of the (Z) form only finally reached 35% after 3 hours had elapsed since the start of irradiation, and it was determined that at least 2 hours are required to reach equilibrium.

[1] = irradiation time 0 hours (prior to irradiation)

Cn1nnnc1C(=NO)c1ccccc1 [TZOX, (1-methyl-1H-tetrazol-5-yl)(phenyl)methanoneoxime]
Irradiation time required to reach equilibrium of (E)/(Z) isomerization: at least 2 hour | Abundance Ratio (%) (E) form [1]: 99.52% | Abundance Ratio (%) (Z) form [1]: 0.45% | Abundance Ratio (%) (E) form (irradiation time 1 hour): 83.99% | Abundance Ratio (%) (Z) form (irradiation time 1 hour): 13.7% | Abundance Ratio (%) (E) form (irradiation time 2 hours): 70.39% | Abundance Ratio (%) (Z) form (irradiation time 2 hours): 28.13% | Abundance Ratio (%) (E) form (irradiation time 3 hours): 62.8% | Abundance Ratio (%) (Z) form (irradiation time 3 hours): 35% and 35.3%

Cn1nnnc1C(=N[O-])c1ccccc1.[Na+] [TZOX-Na]
Irradiation time required to reach equilibrium of (E)/(Z) isomerization: 1 h | Abundance Ratio (%) (E) form [1]: 99.43% | Abundance Ratio (%) (Z) form [1]: 0.33% | Abundance Ratio (%) (E) form (irradiation time 1 hour): 64.0% | Abundance Ratio (%) (Z) form (irradiation time 1 hour): 34% | Abundance Ratio (%) (E) form (irradiation time 2 hours): 63.0% | Abundance Ratio (%) (Z) form (irradiation time 2 hours): 33.9% | Abundance Ratio (%) (E) form (irradiation time 3 hours): 66.6% | Abundance Ratio (%) (Z) form (irradiation time 3 hours): 32.3%
